Experimental data published in paper PMC5733478, “A Non-imaging High Throughput Approach to Chemical Library Screening at the Unmodified Adenosine-A3 Receptor in Living Cells” (Frontiers in Pharmacology, 2017).
Structures can show the parent of a compound that is named as a salt. Where two headings read alike, the source gives them in different places.

Molecular target: T1, human A3AR (Homo sapiens, UniProt P0DMS8)
T1 construct: expressed in transfected cells
T1 sequence (P0DMS8 1-318): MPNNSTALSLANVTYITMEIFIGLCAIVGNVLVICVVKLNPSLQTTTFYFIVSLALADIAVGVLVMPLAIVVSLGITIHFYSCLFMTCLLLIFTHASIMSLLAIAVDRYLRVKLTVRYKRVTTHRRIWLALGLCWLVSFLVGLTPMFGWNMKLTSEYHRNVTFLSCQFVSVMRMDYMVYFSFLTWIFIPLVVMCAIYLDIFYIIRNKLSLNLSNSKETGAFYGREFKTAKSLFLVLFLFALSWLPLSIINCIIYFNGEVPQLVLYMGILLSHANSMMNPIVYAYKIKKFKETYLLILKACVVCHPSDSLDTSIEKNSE
Assay: LOPAC library primary screen: single concentration (10 μM) inhibition of 25 nM CA200645 binding, PHERAstar FS

[1] = % of control wells (1% DMSO and 25 nM CA200645), compounds at 10 µM, whole live cells expressing the A3AR, mean ± SD, three experiments in duplicate

Compound	% 25 nM CA200645 binding [%]	% 25 nM CA200645 binding [1] [%]
Nc1ncnc2c1nc(Sc1ccc(Cl)cc1)n2C1OC2COP(=O)(O)OC2C1O (stereo in doubt) [8-(4-Chlorophenylthio)-cAMP sodium]	91.8 ± 2.6	
CN1CCC(=C2c3ccccc3C=Cc3ccccc32)CC1 [Cyproheptadine hydrochloride]	96.0 ± 5.5	
CP(=O)(O)C1=CCNCC1 [TPMPA]	99.7 ± 3.7	
Nc1nc(Cl)nc2c1ncn2[C@@H]1O[C@H](COP(=O)(O)OP(=O)(O)OP(=O)(O)O)C(O)C1O (stereo in doubt)	89.5 ± 23.0	
COCCc1ccc(OCC(O)CNC(C)C)cc1.O=C(O)C(O)C(O)C(=O)O (racemic) [(±)-Metoprolol (+)-tartrate]	83.3 ± 9.2	
COc1ccc2c(c1O)-c1cccc3c1[C@@H](C2)N(C)CC3.Cl [R(-)-Apocodeine hydrochloride]	70.5 ± 34.0	
O=C(CCNNC(=O)c1ccncc1)NCc1ccccc1 [Nialamide]	96.8 ± 7.4	
c1ccc(-c2ccccn2)nc1 [2,2'-Bipyridyl]	105.2 ± 7.5	
CN(C)CCC(c1ccc(Br)cc1)c1ccccn1.O=C(O)/C=C\C(=O)O (racemic) [(±)-Brompheniramine maleate]	101.5 ± 4.3	
CCCNC(=O)NS(=O)(=O)c1ccc(Cl)cc1 [Chlorpropamide]	97.6 ± 7.8	
(+)-Catechin Hydrate	94.3 ± 10.9	
CC(C)(C)c1ccc(/C=C/C(=O)Nc2ccc3c(c2)OCCO3)cc1 [AMG 9810]	59.0 ± 6.4	
O=C(c1ccc2c(c1)OCCO2)N1CCCCC1 [CX 546]	95.5 ± 26.6	
COc1ccc(CN(CCN(C)C)c2ccccn2)cc1 [Pyrilamine maleate]	84.6 ± 34.1	
N#CC(=C(/N)Sc1ccccc1N)/C(C#N)=C(/N)Sc1ccccc1N [U0126]	97.2 ± 19.0	
[Cl-].[Li+] [Lithium Chloride]	99.9 ± 5.2	
CN1[C@@H]2CC[C@H]1C[C@@H](OC(c1ccccc1)c1ccccc1N)C2 (stereo partly drawn) [Aminobenztropine]	92.7 ± 5.2	
NC(=O)c1ncn([C@@H]2O[C@H](CO)[C@@H](O)[C@H]2O)n1 [Ribavirin]	103.3 ± 14.0	
O=[N+]([O-])c1cccc2c(Br)n[nH]c12 [3-Bromo-7-nitroindazole]	81.2 ± 6.7	
CCN(CC)CCNC(=O)c1ccc(NC(C)=O)cc1.Cl [N-Acetylprocainamide hydrochloride]	86.4 ± 17.7	
O=P(O)(O)C(Cl)(Cl)P(=O)(O)O [Clodronic acid]	98.4 ± 3.5	
O=C(O)CC[N+](=O)[O-] [3-Nitropropionic acid]	111.3 ± 13.2	
COc1cc(C(O)C(=O)O)ccc1O (racemic) [(±)-Vanillylmandelic acid]	97.4 ± 12.9	
NS(=O)(=O)c1cccc2c1c([N+](=O)[O-])cc1nc([O-])c([O-])nc12.[Na+].[Na+] [NBQX disodium]	94.5 ± 3.8	

Compound	% 25 nM CA200645 binding [%]	% 25 nM CA200645 binding [1] [%]
N#CC(C#N)=C(N)/C(C#N)=C/c1ccc(O)cc1 [Tyrphostin AG 112]	102.8 ± 4.7	
CCCCCCC(C(C)O)n1cnc2c(N)ncnc21.Cl (stereo not drawn)	80.7 ± 17.0	
COc1cc2c(cc1OC)-c1c/c(=N\c3c(C)cc(C)cc3C)n(C)c(=O)n1CC2 [Trequinsin hydrochloride]		88.3 ± 40.0
N=C(N)SCCc1cnc[nH]1 [Imetit dihydrobromide]	99.9 ± 2.2	
c1ccc2c(c1)CCCC2C1=NCCN1 (stereo not drawn) [Tetrahydrozoline hydrochloride]	98.2 ± 6.4	
Nc1ncnc2c1c(-c1ccc(Oc3ccccc3)cc1)cn2C1CCCC1	58.8 ± 13.2	
NC1=NCC2c3ccccc3Cc3ccccc3N12 (stereo not drawn) [Epinastine hydrochloride]	96.6 ± 14.2	
C=CCNc1ncnc2ccc(Br)cc12 [SMER28]	86.4 ± 8.7	
O=C(CCc1ccc(O)cc1)c1c(O)cc(O)cc1O [Phloretin]	67.7 ± 15.2	
CN(C)c1nc(N(C)C)nc(N(C)C)n1 [Altretamine]	99.1 ± 9.2	
COC1(C2=NCCN2)COc2ccccc2O1.Cl (stereo not drawn) [RX 821002 hydrochloride]	101.0 ± 17.5	
CCN(CC)CCCN(c1ccccc1)C1Cc2ccccc2C1 [Aprindine hydrochloride]	96.8 ± 13.3	
CN(C(=O)CCCOc1ccc2[nH]c(=O)ccc2c1)C1CCCCC1 [Cilostamide]		75.9 ± 3.4
C=CCn1c(=O)c2c(nc(-c3ccc(S(=O)(=O)O)cc3)n2C)n(C)c1=O	97.5 ± 9.3	
C=C(C)[C@H]1CC=C(C(=O)O)CC1 [(-)-Perillic acid]	115.8 ± 16.6	
NC(=S)c1ccc[n+]([C@@H]2O[C@@H](COP(=O)([O-])OP(=O)(O)OC[C@H]3O[C@@H](n4cnc5c(N)ncnc54)C(OP(=O)([O-])O)[C@H]3O)C(O)C2O)c1.[Na+] (stereo partly drawn) [Thio-NADP sodium]	101.4 ± 10.4	
CC(NC(C)(C)C)C(=O)c1cccc(Cl)c1 (stereo not drawn) [Bupropion hydrochloride]	98.9 ± 4.9	
Oc1ccc2c3c1O[C@H]1c4oc5ccccc5c4C[C@@]4(O)[C@@H](C2)N(CC2CC2)CC[C@]314 [Naltriben methanesulfonate]	106.9 ± 8.0	
Cc1cccc(C)c1NC(=O)C(C)N (stereo not drawn) [Tocainide hydrochloride]	102.0 ± 15.0	
Cl.OC1CCCCC1N1CCC(c2ccccc2)CC1 (racemic) [(±)-Vesamicol hydrochloride]	112.9 ± 7.4	
N[C@@H](Cc1ccc(O)c(I)c1)C(=O)O [3-Iodo-L-tyrosine]	96.8 ± 8.8	
CN(C)CCCN1c2ccccc2Sc2ccccc21 [Promazine hydrochloride]	80.6 ± 8.4	
NNCCc1ccccc1 [Phenelzine sulfate]	99.4 ± 7.6	
CN(C)C(=O)Oc1cccc([N+](C)(C)C)c1 [Neostigmine bromide]	100.2 ± 23.4	

Compound	% 25 nM CA200645 binding [%]	% 25 nM CA200645 binding [1] [%]
CN1[C@@H]2CC[C@H]1C[C@@H](OC(c1ccccc1)c1ccccc1)C2 [Benztropine mesylate]	96.0 ± 5.8	
Cc1ccc(S(=O)(=O)NC(=O)NN2CCCCCC2)cc1 [Tolazamide]	109.2 ± 9.0	
CC1=C(C(=O)O)N2C(=O)[C@@H](NC(=O)[C@H](N)C3=CCC=CC3)[C@H]2SC1 [Cephradine]	95.6 ± 1.1	
Nc1ncnc2n[nH]c(Nc3ccc(F)cc3)c12 [CGP 57380]	81.2 ± 23.0	
NC(=O)c1ccccc1 [Benzamide]	99.1 ± 4.7	
PD-184161	50.8 ± 14.3	
Cl.c1ccc2sc(C3(N4CCCCC4)CCCCC3)cc2c1 [BTCP hydrochloride]	94.3 ± 14.0	
N[C@@H](Cc1c[nH]c2ccc(O)cc12)C(=O)O [5-Hydroxy-L-tryptophan]	97.7 ± 1.5	
CN1CC[C@@]2(C)c3cc(O)ccc3N(C)[C@@H]12.O=C(O)/C=C/C(=O)O [(-)-Eseroline fumarate]	105.8 ± 9.3	
CC1=C(/C=C/C(C)=C/C=C/C(C)=C/C(=O)O)C(C)(C)CCC1 [Retinoic acid]	93.6 ± 14.4	
Nc1nc2ccc(Cl)cc2c2nc(-c3ccco3)nn12 [CGS-15943]	30.0 ± 3.0	
COc1cc(/C=C(\C#N)C(=O)Nc2nnc(C(F)(F)F)s2)ccc1OCc1ccc(C(F)(F)F)cc1C(F)(F)F [XCT790]	87.7 ± 9.0	
CC(=O)NBr [N-Bromoacetamide]	97.9 ± 5.0	
CC[N+](C)(C)c1cccc(O)c1 [Edrophonium chloride]	88.1 ± 20.0	
CCCCc1oc2ccccc2c1C(=O)c1cc(I)c(OCCN(CC)CC)c(I)c1 [Amiodarone hydrochloride]	91.5 ± 10.5	
Br.Oc1cc2c(c(Cl)c1O)CCNCC2c1ccccc1 (racemic) [(±)-6-Chloro-PB hydrobromide]	99.3 ± 4.1	
COc1ccc2[n-]c([S@@+]([O-])Cc3ncc(C)c(OC)c3C)nc2c1.COc1ccc2[n-]c([S@@+]([O-])Cc3ncc(C)c(OC)c3C)nc2c1.O.O.[Mg+2] [Esomeprazole magnesium dihydrate]	81.5 ± 16.8	
CN(C)[C@@H]1C(O)=C(C(N)=O)C(=O)[C@@]2(O)C(O)=C3C(=O)c4c(O)ccc(Cl)c4[C@@H](O)[C@H]3C[C@@H]12 [Demeclocycline hydrochloride]	98.1 ± 10.5	
Br.CN1Cc2sccc2C(c2ccc(O)c(O)c2)C1 (stereo not drawn) [SKF-89145 hydrobromide]	97.3 ± 9.6	
C[C@]12CCC(=O)C=C1CC[C@@H]1[C@@H]2[C@@H](O)C[C@@]2(C)[C@H]1CC[C@]2(O)C(=O)CO [Hydrocortisone]	84.4 ± 24.1	
NC(CCCCCP(=O)(O)O)C(=O)O (racemic) [(±)-2-Amino-7-phosphonoheptanoic acid]	52.2 ± 10.8	
C=CC[N+](C)(C)c1ccc(CCC(=O)CCc2ccc([N+](C)(C)CC=C)cc2)cc1.[Br-].[Br-] [BW 284c51]	100.9 ± 3.8	
CN1CCC[C@@H]1Cc1c[nH]c2ccc(CCS(=O)(=O)c3ccccc3)cc12 [Eletriptan hydrobromide]	96.9 ± 5.3	
CC(C)NC[C@@H](O)c1ccc(O)c(O)c1.O=C(O)C(O)C(O)C(=O)O [S(+)-Isoproterenol (+)-bitartrate]	101.2 ± 2.4	
